# From patent publication US20230233615A1, “PHARMACEUTICAL COMPOSITION FOR TREATING ALZHEIMER'S DISEASE” (Gwo Xi Stem Cell Applied Technology Co., Ltd., priority 2022, published 2023)
# Assays:
# IL-1β = assay: Inhibition on NLRP3 by EVs, IL-1β in BV2 microglia cell line; format: cell-based; conditions: BV2 cells, LPS + ATP, 48 hours, 100 mM of mefenamic acid
# Experimental: (§1) In order to investigate anti-inflammatory and NLR family pyrindomain containing 3 (NLRP3) inflammasome inhibitory effects of ADSC-derived EVs, a study was performed using a BV2 microglia cell line (hereinafter referred to as BV2 cells). BV2 cells were initiated with 100 ng/ml of LPS and 5 mM of ATP, and 100 mM of mefenamic acid (a positive control group) or a low dose of ADSC-derived EVs (2×10^5 particles/cell) or a high dose of ADSC-derived EVs (2×10^6 particles/cell) in a humidified environment with 5%CO2 at 37° C. for 48 hours.
# IL-18 = assay: Inhibition on NLRP3 by EVs, IL-18 in BV2 microglia cell line; format: cell-based; conditions: BV2 cells, LPS + ATP, 48 hours, 100 mM of mefenamic acid
# Experimental: as §1
smiles,measurement,setting,value
Cc1cccc(Nc2ccccc2C(=O)O)c1C [mefenamic acid],inhibited expression of IL-1β (compared to PBS group),IL-1β; first stated set,35.4%
same,inhibited expression of IL-1β (compared to PBS group),IL-1β; second stated set,69.5%
same,inhibited expression of IL-18 (compared to PBS group),IL-18; first stated set,29.2%
same,expression of IL-18 (compared to PBS group),IL-18; second stated set,no significant change
